# Measured values from patent publication US11046699B2, “Pyrazolo-pyrimidin-amino-cycloalkyl compounds and their therapeutic uses” (RAPT THERAPEUTICS, INC., priority 2018, dated 2021).
# Where a name gives a salt, the structure may show the parent alone.
# Biological target: GCN2 (Homo sapiens, UniProt Q9P2K8)
# Assay: GCN2 enzymatic endpoint assay: phosphorylation of GFP-eIF2α measured by TR-FRET (Lanthascreen)
# Format: biochemical
# Conditions: GCN2 biochemical IC50; 4 nM GCN2, 2 μM ATP, 80 nM GFP-eIF2α, 90 min RT; read-out: GCN2 activity
# In short: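 2 μM ATP, 80 nM GFP-eIF2α, RT, 90 min; EDTA stop. Tb-anti-phospho antibody TR-FRET read, 520/495 nm ratio.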
# Sequence of GCN2 (Q9P2K8 whole entry): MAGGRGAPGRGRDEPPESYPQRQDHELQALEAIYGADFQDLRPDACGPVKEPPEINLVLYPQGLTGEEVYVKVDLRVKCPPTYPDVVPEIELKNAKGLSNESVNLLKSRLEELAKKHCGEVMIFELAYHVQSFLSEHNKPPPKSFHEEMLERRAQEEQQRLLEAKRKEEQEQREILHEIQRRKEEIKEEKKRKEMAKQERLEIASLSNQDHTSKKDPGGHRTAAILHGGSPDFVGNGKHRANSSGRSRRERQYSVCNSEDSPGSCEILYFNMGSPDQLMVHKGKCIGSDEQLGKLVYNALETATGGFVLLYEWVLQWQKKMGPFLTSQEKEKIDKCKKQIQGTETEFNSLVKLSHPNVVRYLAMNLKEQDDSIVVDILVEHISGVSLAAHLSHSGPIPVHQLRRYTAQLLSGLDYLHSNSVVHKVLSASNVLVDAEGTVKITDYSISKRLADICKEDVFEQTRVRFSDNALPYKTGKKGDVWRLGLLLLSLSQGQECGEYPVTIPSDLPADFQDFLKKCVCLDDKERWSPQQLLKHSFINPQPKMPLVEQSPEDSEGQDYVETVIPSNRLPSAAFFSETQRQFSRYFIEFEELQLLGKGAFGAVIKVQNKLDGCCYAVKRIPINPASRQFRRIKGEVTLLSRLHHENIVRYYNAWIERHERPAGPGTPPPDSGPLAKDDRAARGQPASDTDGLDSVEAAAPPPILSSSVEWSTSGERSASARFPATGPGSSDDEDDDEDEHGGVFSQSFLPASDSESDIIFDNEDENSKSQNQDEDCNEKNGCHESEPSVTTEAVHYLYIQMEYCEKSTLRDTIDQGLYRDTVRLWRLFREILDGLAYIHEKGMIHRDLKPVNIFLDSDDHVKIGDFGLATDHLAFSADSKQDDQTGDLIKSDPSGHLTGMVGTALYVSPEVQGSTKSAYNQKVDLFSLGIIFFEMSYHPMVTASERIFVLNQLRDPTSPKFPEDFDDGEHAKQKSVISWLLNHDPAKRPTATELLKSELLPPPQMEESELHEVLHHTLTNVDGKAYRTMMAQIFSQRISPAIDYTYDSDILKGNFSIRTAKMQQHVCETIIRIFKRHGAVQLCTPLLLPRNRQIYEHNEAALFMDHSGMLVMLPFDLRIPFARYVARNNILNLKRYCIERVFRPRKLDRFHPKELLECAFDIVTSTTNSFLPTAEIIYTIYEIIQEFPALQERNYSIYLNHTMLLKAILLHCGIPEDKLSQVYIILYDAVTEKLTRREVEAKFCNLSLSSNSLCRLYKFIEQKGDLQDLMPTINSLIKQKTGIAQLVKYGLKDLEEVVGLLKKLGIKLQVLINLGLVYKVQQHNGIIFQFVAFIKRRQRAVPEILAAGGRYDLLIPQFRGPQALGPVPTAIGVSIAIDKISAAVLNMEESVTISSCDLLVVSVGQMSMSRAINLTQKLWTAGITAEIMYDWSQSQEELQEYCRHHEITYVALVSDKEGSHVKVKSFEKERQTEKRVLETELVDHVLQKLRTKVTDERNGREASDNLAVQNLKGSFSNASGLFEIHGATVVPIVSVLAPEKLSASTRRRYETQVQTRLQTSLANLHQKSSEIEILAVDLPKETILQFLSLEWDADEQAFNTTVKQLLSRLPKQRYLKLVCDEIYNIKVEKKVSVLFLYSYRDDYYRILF
row,IC50,Structure (SMILES)
1,< 25 nM,"CNC(=O)[C@]1(CC#N)CC[C@@H](Nc2ncc3c(Br)nn(-c4cc(F)c5ncccc5c4)c3n2)C1 [Example 40, (1R,3R)-3-((3-bromo-1-(8-fluoroquinolin-6-yl)-1H-pyrazolo[3,4-d]pyrimidin-6-yl)amino)-1-(cyanomethyl)-N-methylcyclopentane-1-carboxamide hydrochloride]"
2,25 to 200 nM,"CNC(=O)[C@]1(C)CC[C@@H](Nc2ncc3c(Br)nn(-c4cc(Cl)cc(CO)c4)c3n2)C1 [Example 46, (1R,3R)-3-((3-bromo-1-(3-chloro-5-(hydroxymethyl)phenyl)-1H-pyrazolo[3,4-d]pyrimidin-6-yl)amino)-N,1-dimethylcyclopentane-1-carboxamide; 2,2,2-trifluoroacetic acid]"

# Same assay, conditions: tested as described in Example 77; compound and/or hydrochloride, dihydrochloride or trifluoroacetic acid salt; read-out: IC 50 Activity
row,Structure (SMILES),IC50
1,"CNC(=O)[C@]1(C)CC[C@@H](Nc2ncc3c(Br)nn(-c4ccc5c(c4)[C@H](NS(C)(=O)=O)CC5)c3n2)C1 [(1R,3R)-3-[[3-bromo-1-[(3R)-3-(methanesulfonamido)indan-5-yl]pyrazolo [3,4-d]pyrimidin-6-yl]amino]-N,1-dimethyl-cyclopentanecarboxamide]",25 to 200 nM
2,"CNC(=O)[C@]1(C)CC[C@@H](Nc2ncc3c(Br)nn(-c4ccc(-c5ncco5)c(NC(=O)C5CNC5)c4)c3n2)C1 [N-[5-[3-bromo-6-[[(1R,3R)-3-methyl-3-(methylcarbamoyl)cyclopentyl]amino]pyrazolo[3,4-d]pyrimidin-1-yl]-2-oxazol-2-yl-phenyl]azetidine-3-carboxamide]",< 25 nM
3,"CNC(=O)[C@]1(C)CC[C@@H](Nc2ncc3c(Br)nn(-c4ccc(-c5nnc(C(C)(C)N)s5)c(C#N)c4)c3n2)C1 [(1R,3R)-3-[[1-[4-[5-(1-amino-1-methyl-ethyl)-1,3,4-thiadiazol-2-yl]-3-cyano-phenyl]-3-bromo-pyrazolo[3,4-d]pyrimidin-6-yl]amino]-N,1-dimethyl-cyclopentanecarboxamide]",25 to 200 nM
4,"CC1(C(N)=O)CC[C@@H](Nc2ncc3c(Br)nn(-c4ccc(-c5ncco5)c(F)c4)c3n2)C1 (stereo partly drawn) [(3R)-3-[[3-bromo-1-(3-fluoro-4-oxazol-2-yl-phenyl)pyrazolo[3,4-d]pyrimidin-6-yl]amino]-1-methyl-cyclopentanecarboxamide]",< 25 nM
5,"CNC(=O)[C@]1(C)CC[C@@H](Nc2ncc3c(Br)nn(-c4ccc(-c5nnc(C(C)(C)N)o5)c(F)c4)c3n2)C1 [(1R,3R)-3-[[1-[4-[5-(1-amino-1-methyl-ethyl)-1,3,4-oxadiazol-2-yl]-3-fluoro-phenyl]-3-bromo-pyrazolo[3,4-d]pyrimidin-6-yl]amino]-N,1-dimethyl-cyclopentanecarboxamide]",25 to 200 nM
6,CNC(=O)[C@]1(C)CC[C@@H](Nc2ncc3c(Br)nn(-c4ccc5ncn(CCO)c(=O)c5c4)c3n2)C1,25 to 200 nM
7,"CS(=O)(=O)CCNC(=O)[C@@H]1CC[C@@H](Nc2ncc3c(Br)nn(-c4cnn(-c5ccncc5)c4)c3n2)C1 [(1R,3R)-3-((3-bromo-1-(1-(pyridin-4-yl)-1H-pyrazol-4-yl)-1H-pyrazolo[3,4-d]pyrimidin-6-yl)amino)-N-(2-(methylsulfonyl)ethyl)cyclo-pentane-1-carboxamide]",200 to 500 nM
8,"CNC(=O)[C@]1(C)CC[C@@H](Nc2ncc3c(Br)nn(-c4cc(NC(=O)CCCN)c5ncccc5c4)c3n2)C1 [(1R,3R)-3-[[1-[8-(4-aminobutanoylamino)-6-quinolyl]-3-bromo-pyrazolo[3,4-d]pyrimidin-6-yl]amino]-N,1-dimethyl-cyclopentanecarboxamide]",25 to 200 nM
9,"C[C@H](N)c1cc(Cl)cc(-n2nc(Br)c3cnc(N[C@@H]4CC[C@@](C)(CO)C4)nc32)c1 [[(1R,3R)-3-[[1-[3-[(1S)-1-aminoethyl]-5-chloro-phenyl]-3-bromo-pyrazolo [3,4-d]pyrimidin-6-yl]amino]-1-methyl-cyclopentyl]methanol hydrochloride]",25 to 200 nM
10,"NCCc1cc(-n2nc(Br)c3cnc(NC4CC(O)C4)nc32)cc2cccnc12 (centres unmarked) [3-[[1-[8-(2-aminoethyl)-6-quinolyl]-3-bromo-pyrazolo[3,4-d]pyrimidin-6-yl]amino] cyclobutanol]",25 to 200 nM
11,"CNC(=O)C1(C)CC[C@@H](Nc2ncc3c(Br)nn(-c4cccc(C(C)(C)O)c4)c3n2)C1 (stereo partly drawn) [(3R)-3-[[3-bromo-1-[3-(1-hydroxy-1-methyl-ethyl)phenyl]pyrazolo[3,4-d]pyrimidin-6-yl]amino]-N,1-dimethyl-cyclopentane-carboxamide]",25 to 200 nM
12,"CNC(=O)[C@]1(C)CC[C@@H](Nc2ncc3c(Br)nn(-c4ccc(-c5nnc(C)s5)c(CCN5CCOCC5)c4)c3n2)C1 [(1R,3R)-3-[[3-bromo-1-[4-(5-methyl-1,3,4-thiadiazol-2-yl)-3-(2-morpholino-ethyl)phenyl]pyrazolo[3,4-d]pyrimidin-6-yl]amino]-N,1-dimethyl-cyclo-pentanecarboxamide]",25 to 200 nM
13,"CNC(=O)[C@]1(C)CC[C@@H](Nc2ncc3c(Br)nn(-c4ccc(-c5ncco5)c(NC(=O)CCN)c4)c3n2)C1 [(1R,3R)-3-[[1-[3-(3-aminopropanoyl-amino)-4-oxazol-2-yl-phenyl]-3-bromo-pyrazolo[3,4-d]pyrimidin-6-yl]amino]-N,1-dimethyl-cyclopentane-carboxamide]",< 25 nM
14,"CNC(=O)[C@]1(C)CC[C@@H](Nc2ncc3c(Br)nn(-c4ccc5c(c4)CN(C(=O)CO)CC5)c3n2)C1 [(1R,3R)-3-[[3-bromo-1-[2-(2-hydroxyacetyl)-3,4-dihydro-1H-isoquinolin-7-yl]pyrazolo [3,4-d]pyrimidin-6-yl]amino]-N,1-dimethyl-cyclopentanecarboxamide]",25 to 200 nM
15,"CNC(=O)[C@]1(C)CC[C@@H](Nc2ncc3c(Br)nn(-c4cc(F)cc(C(N)=O)c4)c3n2)C1 [3-[3-bromo-6-[[(1R,3R)-3-methyl-3-(methylcarbamoyl)cyclopentyl]amino]pyrazolo[3,4-d]pyrimidin-1-yl]-5-fluoro-benzamide]",25 to 200 nM
16,Cc1nnc(-c2ccc(-n3nc(Br)c4cnc(N[C@@H]5CC[C@@]6(CCNC6=O)C5)nc43)cc2)s1,25 to 200 nM
17,"CNC(=O)[C@]1(C)CC[C@@H](Nc2ncc3c(Br)nn(-c4cc(F)cc(CO)c4)c3n2)C1 [(1R,3R)-3-[[3-bromo-1-[3-fluoro-5-(hydroxymethyl)phenyl]pyrazolo[3,4-d]pyrimidin-6-yl]amino]-N,1-dimethyl-cyclopentanecarboxamide]",25 to 200 nM

# Further lines, results first:
row,IC50,Structure (SMILES)
1,25 to 200 nM,"O=C([C@@H]1CC[C@@H](Nc2ncc3c(Br)nn(-c4cc(F)c5ncccc5c4)c3n2)C1)N1CCN2C(=O)COCC2C1 (stereo partly drawn) [8-((1R,3R)-3-((3-bromo-1-(8-fluoroquinolin-6-yl)-1H-pyrazolo[3,4-d]pyrimidin-6-yl)amino)cyclopentane-1-carbonyl)hexahydropyrazino [2,1-c][1,4]oxazin-4(3H)-one]"
2,25 to 200 nM,C[C@]1(NC(=O)[C@@H]2CC[C@@H](Nc3ncc4c(Br)nn(-c5ccc6ncccc6c5)c4n3)C2)C[C@H](O)C1
3,25 to 200 nM,CC(C)(O)CNC(=O)[C@@H]1CC[C@@H](Nc2ncc3c(Br)nn(-c4cc(F)c5ncccc5c4)c3n2)C1
4,25 to 200 nM,"C[C@@H]1COCCN1C(=O)[C@@H]1CC[C@@H](Nc2ncc3c(Br)nn(-c4ccc5ncccc5c4)c3n2)C1 [((1R,3R)-3-((3-bromo-1-(quinolin-6-yl)-1H-pyrazolo[3,4-d]pyrimidin-6-yl)amino)cyclo-pentyl)((R)-3-methylmorpholino)methanone]"
5,25 to 200 nM,"O=C([C@@H]1CC[C@@H](Nc2ncc3c(Br)nn(-c4ccc5ncccc5c4)c3n2)C1)N1CC2(CCNC2)C1 [((1R,3R)-3-((3-bromo-1-(quinolin-6-yl)-1H-pyrazolo[3,4-d]pyrimidin-6-yl)amino)cyclo-pentyl)(2,6-diazaspiro[3.4]octan-2-yl) methanone]"
6,25 to 200 nM,"CNC(=O)[C@@H]1CC[C@@H](Nc2ncc3c(Br)nn(-c4cnc5c(C#N)cccc5c4)c3n2)C1 [(1R,3R)-3-[[3-bromo-1-(8-cyano-3-quinolyl)pyrazolo[3,4-d]pyrimidin-6-yl]amino]-N-methyl-cyclopentanecarboxamide]"
7,500 to 1000 nM,"Cn1ccnc1-c1ccc(-n2nc(Br)c3cnc(N[C@@H]4CC[C@@H](C(=O)NCCS(C)(=O)=O)C4)nc32)cc1 [(1R,3R)-3-((3-bromo-1-(4-(1-methyl-1H-imidazol-2-yl)phenyl)-1H-pyrazolo[3,4-d]pyrimidin-6-yl)amino)-N-(2-(methyl-sulfonyl)ethyl)cyclopentane-1-carboxamide]"
8,< 25 nM,"CCNC(=O)[C@]1(C)CC[C@@H](Nc2ncc3c(Br)nn(-c4cc(F)c5ncccc5c4)c3n2)C1 [(1R,3R)-3-[[3-bromo-1-(8-fluoro-6-quinolyl)pyrazolo[3,4-d]pyrimidin-6-yl]amino]-N-ethyl-1-methyl-cyclopentanecarboxamide]"
9,25 to 200 nM,CNC(=O)C1CCN(C(=O)[C@@H]2CC[C@@H](Nc3ncc4c(Br)nn(-c5cc(F)c6ncccc6c5)c4n3)C2)C1 (mixture of isomers)
10,25 to 200 nM,"CN(C)S(=O)(=O)[C@@H]1CC[C@@H](Nc2ncc3c(Br)nn(-c4ccc5ncccc5c4)c3n2)C1 [(1R,3R)-3-((3-bromo-1-(quinolin-6-yl)-1H-pyrazolo[3,4-d]pyrimidin-6-yl)amino)-N,N-dimethylcyclopentane-1-sulfonamide]"
11,25 to 200 nM,O=C(N[C@H]1CC[C@@](O)(C(F)(F)F)CC1)[C@@H]1CC[C@@H](Nc2ncc3c(Br)nn(-c4ccc5ncccc5c4)c3n2)C1
12,< 25 nM,"CC[C@@]1(C(=O)NC)CC[C@@H](Nc2ncc3c(Br)nn(-c4cc(F)c5ncccc5c4)c3n2)C1 [(1R,3R)-3-[[3-bromo-1-(8-fluoro-6-quinolyl)pyrazolo[3,4-d]pyrimidin-6-yl]amino]-1-ethyl-N-methyl-cyclopentanecarboxamide]"
13,25 to 200 nM,"O=C(CO)N1CCN(C(=O)[C@@H]2CC[C@@H](Nc3ncc4c(Br)nn(-c5ccc6ncccc6c5)c4n3)C2)CC1 [1-(4-((1R,3R)-3-((3-bromo-1-(quinolin-6-yl)-1H-pyrazolo[3,4-d]pyrimidin-6-yl)amino)cyclopentane-1-carbonyl)piperazin-1-yl)-2-hydroxyethan-1-one]"
